The values that follow come from paper PMC12386561, “Broad-Spectrum Antimicrobial Potential of the γ-Core Motif Peptides of Filipendula ulmaria for Practical Applications in Agriculture and Medicine” (International Journal of Molecular Sciences, 2025).

Test [1] deals with Pectobacterium carotovorum subsp. carotovorum VKM B-1247. Briefly: Antimicrobial activity assay against bacteria, growth inhibition in microtiter plates. To be noted: modified YPD-P medium, peptide 0.5–300 µM, 30 °C, 24 h, absorbance 594 nm, triplicate, mean ± SD. The class given is cell-based. The text has this: (§1) The IC50 values are presented as mean ± standard deviations.
A further test has as its system F. solani VKM F-142. In kind it is cell-based, Fusarium solani. The note with it: spores in half-strength potato dextrose broth, peptide 5–300 µM, 48 h, absorbance 595 nm, triplicate, mean ± SD; for IC50: read-out: IC50 against F. solani. The method, then: (§2) The inhibitory activity of peptides on spore germination and growth of fungi was tested against nine fungal strains from the VKM: Fusarium culmorum VKM F-2303, F. oxysporum VKM F-137, F. solani VKM F-142, F. verticillioides VKM F-670, Aspergillus unguis VKM F-1754, Bipolaris sorokiniana VKM F-4006, Botrytis cinerea VKM F-4549, Rhizoctonia solani VKM F-895, and Penicillium gladioli VKM F-2088. The fungi were cultivated on potato dextrose agar at 25 °C for 7–8 days, while B. sorokiniana and B. cinerea were grown for 10–12 days. Spores were obtained by washing from the surface of the mycelia with sterile distilled water and filtered through a sterile filter. The filtrate was centrifuged at 6000 rpm for 15 min. The precipitate was washed three times with sterile distilled water and centrifuged at 10,000 rpm for 2 min. A total of 1 mL of sterile aqueous 20% glycerol solution was added to the spores, and spores were stored at −20 °C.
(§3) The antifungal effect of peptides was determined in microtiter plates by measuring the absorbance of the spore suspension in the presence of the peptide relative to the control. In the wells of a plate, 90 µL of spore suspension in half-strength potato dextrose broth at a concentration of 2000–3000 spores in 100 µL was mixed with 10 µL of aqueous solutions of peptides to obtain final concentrations of 5–300 µM. Each experiment was carried out in triplicate. The concentration of spores in the suspension was determined in a Goryaev chamber. The absorbance was recorded at 595 nm on a FilterMax F5 Multi-Mode Microplate Reader (Molecular Devices, San Jose, CA, USA) after 48 h of incubation. The antimicrobial activity was expressed in IC50 values.

The subject of test [2] is Cryptococcus neoformans VKM Y-2755. The note with it: read-out: IC50 against C. neoformans; YPD-P medium, peptide 0.5–300 µM, 30 °C, 24 h, absorbance 594 nm, triplicate, mean ± SD.
The subject of test [3] is Botrytis cinerea VKM F-4549. In kind it is cell-based. The note with it: spores in half-strength potato dextrose broth, peptide 5–300 µM, 48 h, absorbance 595 nm, triplicate, mean ± SD; read-out: IC50 against B. cinerea. On the procedure: as §2, §3
Test [4] relates to Aspergillus unguis VKM F-1754. The class given is cell-based. The note with it: spores in half-strength potato dextrose broth, peptide 5–300 µM, 48 h, absorbance 595 nm, triplicate, mean ± SD; read-out: IC50 against A. unguis. On the procedure: as §2, §3
The subject of test [5] is Penicillium gladioli VKM F-2088. In kind it is cell-based. The note with it: spores in half-strength potato dextrose broth, peptide 5–300 µM, 48 h, absorbance 595 nm, triplicate, mean ± SD; read-out: IC50 against P. gladioli. The method, then:
as §2, §3

The next test relates to C. tropicalis VKM Y-2771. In kind it is cell-based, Candida tropicalis. To be noted: YPD-P medium, peptide 0.5–300 µM, 30 °C, 24 h, absorbance 594 nm, triplicate, mean ± SD; read-out: IC50 against C. tropicalis.
Excerpt: as §1

Test [6] has as its system F. verticillioides VKM F-670. The class given is cell-based, Fusarium verticillioides. To be noted: spores in half-strength potato dextrose broth, peptide 5–300 µM, 48 h, absorbance 595 nm, triplicate, mean ± SD; for IC50: read-out: IC50 against F. verticillioides. On the procedure: as §2, §3
For test [7], the system named is Clavibacter michiganensis subsp. michiganensis VKM Ac-1403. Briefly: Antimicrobial activity assay against bacteria, growth inhibition in microtiter plates. In kind it is cell-based. The note with it: modified YPD-P medium, peptide 0.5–300 µM, 30 °C, 24 h, absorbance 594 nm, triplicate, mean ± SD.
Excerpt: as §1

Test [8] relates to Candida albicans VKM Y-2994. In kind it is cell-based. The note with it: YPD-P medium, peptide 0.5–300 µM, 30 °C, 24 h, absorbance 594 nm, triplicate, mean ± SD; read-out: IC50 against C. albicans.
Excerpt: as §1

Test [9] concerns Pseudomonas savastanoi pv. savastanoi VKM B-1546. The class given is cell-based. To be noted: medium without glucose, peptide 0.5–300 µM, 30 °C, 24 h, absorbance 594 nm, triplicate, mean ± SD; for IC50: read-out: IC50 against P. savastanoi.
Excerpt: as §1

Test [10] has as its system Fusarium culmorum VKM F-2303. Put plainly: Antifungal activity assay, spore germination and growth. To be noted: spores in half-strength potato dextrose broth, peptide 5–300 µM, 48 h, absorbance 595 nm, triplicate, mean ± SD; for IC50: read-out: IC50 against F. culmorum. In kind it is cell-based. The method, then: as §2, §3
The subject of test [11] is Bipolaris sorokiniana VKM F-4006. The test is described as above. In kind it is cell-based. To be noted: spores in half-strength potato dextrose broth, peptide 5–300 µM, 48 h, absorbance 595 nm, triplicate, mean ± SD; read-out: IC50 against B. sorokiniana. On the procedure: as §2, §3
A further test concerns F. oxysporum VKM F-137. The class given is cell-based, Fusarium oxysporum. To be noted: spores in half-strength potato dextrose broth, peptide 5–300 µM, 48 h, absorbance 595 nm, triplicate, mean ± SD; for IC50: read-out: IC50 against F. oxysporum. The method, then: as §2, §3
For test [12], the system named is Rhizoctonia solani VKM F-895. Briefly: Antifungal activity assay, spore germination and growth. The note with it: spores in half-strength potato dextrose broth, peptide 5–300 µM, 48 h, absorbance 595 nm, triplicate, mean ± SD; read-out: IC50 against R. solani. The class given is cell-based. The method, then:
as §2, §3

Each structure is given as a SMILES string. Residues, ends and D or L forms follow the SMILES beside them.

Take `CC[C@H](C)[C@H](NC(=O)[C@H](Cc1c[nH]cn1)NC(=O)[C@H](CO)NC(=O)[C@H](CS)NC(=O)[C@H](CCCCN)NC(=O)CN)C(=O)N[C@@H](CC(C)C)C(=O)N[C@@H](CCCNC(=N)N)C(=O)N[C@@H](CCCNC(=N)N)C(=O)N[C@@H](CS)C(=O)N[C@@H](Cc1ccccc1)C(=O)N[C@@H](CS)C(=O)N[C@H](C(=O)N[C@H](C(=O)N[C@@H](Cc1c[nH]cn1)C(=O)N[C@@H](CS)C(=O)O)[C@@H](C)O)[C@@H](C)O` [FuD0] (H-GKCSHILRRCFCTTHC-OH; N-terminus and C-terminus assumed): the IC50 (commonly the concentration at which inhibition is half-maximal) in [1] is > 300 µM.
For `CC[C@H](C)[C@H](NC(=O)[C@H](CS)NC(=O)[C@H](C)NC(=O)CN)C(=O)N[C@@H](C)C(=O)N[C@@H](CCCNC(=N)N)C(=O)N[C@@H](CS)C(=O)N[C@@H](CCCNC(=N)N)C(=O)N[C@@H](CC(C)C)C(=O)N[C@@H](CO)C(=O)N[C@@H](CO)C(=O)N[C@@H](CCCNC(=N)N)C(=O)N1CCC[C@H]1C(=O)N[C@@H](CC(N)=O)C(=O)N[C@@H](CC(C)C)C(=O)N[C@@H](CS)C(=O)N[C@@H](CCCCN)C(=O)N[C@@H](CCCNC(=N)N)C(=O)O` [γ48-67FuSN6] (H-GACIARCRLSSRPNLCKR-OH; N-terminus and C-terminus assumed), the IC50 in the test with F. solani VKM F-142 was found to be 51.4 ± 0.9 µM; in test [2] it was 5.5 ± 0.2 µM; in test [3], 154 ± 4.4 µM; in [4] it was 2.1 µM; in [5], 93.8 ± 4.2 µM; in the test on C. tropicalis VKM Y-2771, 1.7 ± 0.6 µM. Further, the concentration for half-maximal inhibition (IC50) in test [6] was 38 ± 4.6 µM; in [7], 34.7 ± 0.5 µM; in [1], > 300 µM; in test [8], > 300 µM; in [9], 97.2 ± 0.2 µM; in [10], 19.3 ± 1.2 µM. The IC50 is 46.2 ± 3.2 µM in test [11] and 15.8 ± 0.6 µM with F. oxysporum VKM F-137.
For the molecule `CC(C)C[C@H](NC(=O)[C@H](CCCCN)NC(=O)[C@H](CS)NC(=O)[C@H](CCCNC(=N)N)NC(=O)CN)C(=O)N[C@@H](CO)C(=O)N[C@@H](CO)C(=O)N[C@@H](CCCNC(=N)N)C(=O)N1CCC[C@H]1C(=O)N[C@@H](CCCCN)C(=O)N[C@@H](CC(C)C)C(=O)N[C@@H](CS)C(=O)N[C@@H](CCCCN)C(=O)N[C@@H](CCCNC(=N)N)C(=O)O` [γ54-69FuSN5] (H-GRCKLSSRPKLCKR-OH; N-terminus and C-terminus assumed), the half-inhibitory concentration (IC50) in [3], in [1], in test [11] and in test [12] was > 300 µM in each case.
Take `CC[C@H](C)[C@H](NC(=O)[C@H](Cc1c[nH]cn1)NC(=O)[C@H](CO)NC(=O)[C@H](CS)NC(=O)[C@H](CCCCN)NC(=O)CN)C(=O)N[C@@H](CC(C)C)C(=O)N[C@@H](CCCNC(=N)N)C(=O)N[C@@H](CCCNC(=N)N)C(=O)N[C@@H](CS)C(=O)N[C@@H](CCCNC(=N)N)C(=O)N[C@@H](CS)C(=O)N[C@@H](CO)C(=O)N[C@@H](CCCCN)C(=O)N[C@@H](CO)C(=O)N[C@@H](CS)C(=O)O` [γ59-74FuDEFL1-1] (H-GKCSHILRRCRCSKSC-OH; N-terminus and C-terminus assumed): the half-maximal inhibitory concentration (IC50) in [1] is > 300 µM.
Still for that read-out and setting: in the case of `CC[C@H](C)[C@H](NC(=O)[C@H](Cc1c[nH]cn1)NC(=O)[C@H](CO)NC(=O)[C@H](CS)NC(=O)[C@H](CCCCN)NC(=O)CN)C(=O)N[C@@H](CC(C)C)C(=O)N[C@@H](CCCNC(=N)N)C(=O)N[C@@H](CCCNC(=N)N)C(=O)N[C@@H](CS)C(=O)N[C@@H](CCC(N)=O)C(=O)N[C@@H](CS)C(=O)N[C@@H](CC(C)C)C(=O)N[C@@H](CCCCN)C(=O)N[C@@H](CO)C(=O)N[C@@H](CS)C(=O)O` [γ61-76FuDEFL1-7] (H-GKCSHILRRCQCLKSC-OH; N-terminus and C-terminus assumed) it was > 300 µM.
For `CSCC[C@H](NC(=O)[C@H](CC(=O)O)NC(=O)[C@@H](NC(=O)[C@H](Cc1ccc(O)cc1)NC(=O)[C@H](CS)NC(=O)[C@H](CO)NC(=O)CN)[C@@H](C)O)C(=O)N[C@H](C(=O)N[C@H](C(=O)N[C@@H](Cc1c[nH]cn1)C(=O)NCC(=O)N[C@@H](CC(N)=O)C(=O)N[C@@H](CCCNC(=N)N)C(=O)N[C@@H](CC(C)C)C(=O)N[C@@H](CCCCN)C(=O)N[C@@H](CS)C(=O)N1CCC[C@H]1C(=O)O)[C@@H](C)O)[C@@H](C)O` [γ88-104FuSN3] (H-GSCYTDMTTHGNRLKCP-OH; N-terminus and C-terminus assumed), in the test on F. solani VKM F-142, the “IC50 against F. solani” value was “inactive” and the concentration for half-maximal inhibition (IC50) was > 300 µM. Also, the “IC50 against F. verticillioides” value in test [6] is “very low activity”. Besides, in [7], the IC50 is > 300 µM and the “IC50 against C. michiganensis” value is reported as “failed to inhibit the growth”. In test [1], the IC50 was > 300 µM and the “IC50 against P. carotovorum” value is listed as “failed to inhibit the growth”. In [8], the IC50 is > 300 µM. Moreover, in test [9], the “IC50 against P. savastanoi” value is “failed to inhibit the growth” and the IC50 is > 300 µM. For the same molecule, in test [10], the “IC50 against F. culmorum” value was “inactive” and the concentration for half-maximal inhibition (IC50) was > 300 µM. Further, in the test with F. oxysporum VKM F-137, the “IC50 against F. oxysporum” value was “inactive” and the IC50 was > 300 µM.
Take `CC(C)C[C@H](NC(=O)CN)C(=O)N[C@@H](CS)C(=O)N[C@@H](CCCCN)C(=O)N[C@@H](Cc1ccc(O)cc1)C(=O)N[C@@H](CCCNC(=N)N)C(=O)N[C@@H](CS)C(=O)N[C@@H](CO)C(=O)N[C@@H](CC(C)C)C(=O)N[C@@H](Cc1c[nH]cn1)C(=O)N[C@@H](CO)C(=O)N[C@@H](CCCNC(=N)N)C(=O)N1CCC[C@H]1C(=O)N[C@@H](CC(N)=O)C(=O)N[C@H](C(=O)N[C@@H](CS)C(=O)N[C@@H](Cc1ccccc1)C(=O)N[C@@H](CCCNC(=N)N)C(=O)O)C(C)C` [γ89-106SlSN9, reference compound] (H-GLCKYRCSLHSRPNVCFR-OH): the concentration for half-maximal inhibition (IC50) came out at 50.5 ± 1.4 µM with F. solani VKM F-142; 6.3 ± 3.8 µM in test [2]; 118 ± 12 µM in test [3]; 3.3 ± 0.2 µM in test [4]; 93.6 ± 5.2 µM in test [5]; 6.1 ± 0.1 µM with C. tropicalis VKM Y-2771. Also, the IC50 in test [6] turned out to be 32.3 ± 6.5 µM; in [7], 41.9 ± 0.5 µM; in test [8] it was 214 ± 47.1 µM; in [9], 127.6 ± 0.9 µM; in test [10], 23.1 ± 4.5 µM; in test [11], 55.1 ± 7 µM. For the same molecule, the half-maximal inhibitory concentration (IC50) in [12] is 130 ± 2.9 µM; with F. oxysporum VKM F-137 it was 34.1 ± 1 µM.
